Test results taken from publication PMC5647113 (Circulation. Arrhythmia and electrophysiology, 2017).

Experiments:
hERG (KV11.1) = hERG (KV11.1) (Homo sapiens, UniProt Q12809); test: automated patch clamp; assay type: cell-based
hSK3 (KCa2.3) = hSK3 (KCa2.3) (Homo sapiens, UniProt Q9UGI6); test: automated whole-cell patch clamp; assay type: cell-based
hSK3 (KCa2.3), sequence (Q9UGI6 whole entry): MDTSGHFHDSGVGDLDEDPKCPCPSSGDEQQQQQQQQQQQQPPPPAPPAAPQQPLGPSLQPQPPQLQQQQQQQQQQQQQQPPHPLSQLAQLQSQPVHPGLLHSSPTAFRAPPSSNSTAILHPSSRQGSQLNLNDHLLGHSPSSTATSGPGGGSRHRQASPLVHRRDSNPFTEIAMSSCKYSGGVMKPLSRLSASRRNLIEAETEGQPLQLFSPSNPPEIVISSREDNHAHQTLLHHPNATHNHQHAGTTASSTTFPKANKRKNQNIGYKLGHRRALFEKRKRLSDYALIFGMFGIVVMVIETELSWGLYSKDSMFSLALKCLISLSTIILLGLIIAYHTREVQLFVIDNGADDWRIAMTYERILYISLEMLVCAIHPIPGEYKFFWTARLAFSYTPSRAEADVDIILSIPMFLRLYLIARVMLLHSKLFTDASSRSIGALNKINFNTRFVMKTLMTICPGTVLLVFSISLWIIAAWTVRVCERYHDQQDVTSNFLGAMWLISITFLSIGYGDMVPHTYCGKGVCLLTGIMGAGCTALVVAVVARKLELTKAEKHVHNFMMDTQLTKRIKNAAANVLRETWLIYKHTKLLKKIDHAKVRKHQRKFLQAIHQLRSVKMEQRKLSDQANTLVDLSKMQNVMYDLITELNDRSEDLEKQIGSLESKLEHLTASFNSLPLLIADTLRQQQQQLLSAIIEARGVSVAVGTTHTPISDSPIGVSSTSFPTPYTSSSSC

hERG (KV11.1), sequence (Q12809 whole entry): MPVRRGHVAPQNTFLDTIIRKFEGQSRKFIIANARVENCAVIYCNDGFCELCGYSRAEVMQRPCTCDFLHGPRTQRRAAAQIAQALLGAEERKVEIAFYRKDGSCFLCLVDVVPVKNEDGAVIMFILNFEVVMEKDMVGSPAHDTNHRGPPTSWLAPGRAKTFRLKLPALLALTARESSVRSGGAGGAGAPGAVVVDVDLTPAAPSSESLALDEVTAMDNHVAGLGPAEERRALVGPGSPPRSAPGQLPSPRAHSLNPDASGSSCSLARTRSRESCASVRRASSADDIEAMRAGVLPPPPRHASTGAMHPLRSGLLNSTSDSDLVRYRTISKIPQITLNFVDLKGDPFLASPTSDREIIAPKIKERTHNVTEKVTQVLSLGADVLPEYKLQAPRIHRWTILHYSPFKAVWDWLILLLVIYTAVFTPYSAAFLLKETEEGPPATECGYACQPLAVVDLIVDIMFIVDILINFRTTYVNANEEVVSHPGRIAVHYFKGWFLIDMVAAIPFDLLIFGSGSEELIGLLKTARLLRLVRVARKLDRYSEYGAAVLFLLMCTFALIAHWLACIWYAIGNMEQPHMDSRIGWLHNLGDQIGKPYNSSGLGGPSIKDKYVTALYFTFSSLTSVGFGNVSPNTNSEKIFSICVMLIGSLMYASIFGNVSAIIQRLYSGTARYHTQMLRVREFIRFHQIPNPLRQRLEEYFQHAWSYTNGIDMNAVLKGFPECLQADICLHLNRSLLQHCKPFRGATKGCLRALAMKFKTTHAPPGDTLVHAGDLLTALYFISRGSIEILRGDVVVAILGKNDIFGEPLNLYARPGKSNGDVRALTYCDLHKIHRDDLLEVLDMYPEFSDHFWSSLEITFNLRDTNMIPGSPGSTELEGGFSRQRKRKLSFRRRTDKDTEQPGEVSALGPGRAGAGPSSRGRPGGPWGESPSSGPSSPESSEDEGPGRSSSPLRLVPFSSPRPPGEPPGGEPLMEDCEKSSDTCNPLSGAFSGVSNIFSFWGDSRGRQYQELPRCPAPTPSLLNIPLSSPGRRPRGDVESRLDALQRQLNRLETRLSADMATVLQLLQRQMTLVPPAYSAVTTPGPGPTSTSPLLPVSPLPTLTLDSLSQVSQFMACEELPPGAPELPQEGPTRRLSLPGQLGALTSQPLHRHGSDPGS

Which results are given for CC(=O)Nc1cccc2[nH]c(N[C@H](C)c3cccc(C(F)(F)F)c3)nc12 [AP14145, N-(2-{[(1R)-1-[3-(trifluoromethyl)phenyl]ethyl]amino}-1H-1,3-benzodiazol-4-yl)acetamide]?
IC50 (hERG (KV11.1)): 71.8 ± 0.5 µM; IC50 (hSK3 (KCa2.3)): 1.3 ± 0.4 µM
